Results: patent US7833979B2, “Toxin peptide therapeutic agents” (Amgen Inc., priority 2005, dated 2010)
pIC50: −log10 of the molar value.

Key:
Kv1.3 = Kv1.3 (Homo sapiens, UniProt P22001); test: Whole cell patch clamp electrophysiology on HEK293 cells stably expressing human Kv1.3; format: cell-based; conditions: for selectivity ratio hKv1.1/hKv1.3: ratio of hKv1.1 IC50 to hKv1.3 IC50
[1] = test system: IL-2 and IFNg production from anti-CD3 and anti-CD28 stimulated human PBMCs; test: Inhibition of T cell cytokine production following anti-CD3 and anti-CD28 antibody stimulation of PBMCs; format: cell-based; conditions: 48 hours
Method: Inhibition of T cell cytokine production following Anti-CD3 and anti-CD28 antibody stimulation of PBMCs. PBMCs were previously isolated from normal human donor Leukopheresis packs, purified by density gradient centrifugation (Ficoll Hypaque), and cryopreserved using INCELL Freezing Medium. PBMCs were thawed (95% viability), washed, and seeded (in RPMI complete medium containing serum replacement, PSG) at 2×10^5 cells per well into 96-well flat bottom plates. Cells were pre-incubated with serially diluted (100 nM-0.003 nM final) ShK[1-35], Fc-L10-ShK[1-35], or Fc control for 1 hour before the addition of aCD3 and aCD28 (2.5 ng/mL and 100 ng/mL respectively) in a final assay volume of […]. Supernatants were collected after 48 hours, and analyzed using the Meso Scale Discovery (MSD) SECTOR™ Imager 6000 (Meso Scale Discovery, Gaithersbury, Md.) to measure the IL-2 and IFNg protein levels by utilizing electrochemiluminescence (ECL). […] of supernatant was added to the MSD multi-spot 96-well plates (each well containing IL-2, TNFa, and IFNg capture antibodies). The plates were sealed and incubated at room temperature on a plate shaker for 1 hour. Then […] of Ruthenium-labeled detection antibodies (1 ug/ml final of IL-2, TNFα, and IFNγ in Antibody Dilution Buffer) and […] of 2×MSD Read Buffer were added. The plates were sealed, covered with tin foil, and incubated at room temperature on a plate shaker for 1 hour. The plates were then read on the SECTOR™ Imager 6000. […] (POC=Percent Of Control of response in the absence of inhibitor).

[2] = Intravenous pharmacokinetic study in rats, serum levels by Kv1.3 inhibition bioassay; format: in vivo, Spraque Dawley rats; conditions: for Time of significant suppression of Kv1.3 current (<70 POC) by serum: single equal molar IV injection, 5% serum Test solutions
Method: This dose represented equal molar amounts of these two molecules. The average weight of the rats was about 0.3 kg and two rats were used for each dose & molecule. At various times following IV injection, blood was drawn and about 0.1 ml of serum was collected. Serum samples were stored frozen at −80° C. until analysis.
Assay Plate preparation for electrophysiology. […] Before experiments, each sample was thawed at room temperature and an aliquot (70 to 80 μl) was transferred to a well in a 96-well polypropylene plate. In order to prepare the Assay Plate, several dilutions were made from the pharmacokinetic serum samples to give rise to Test Solutions. Dilutions of serum samples from the pharmacokinetic study were into 10% Phosphate Buffered Saline (PBS, with Ca^2+ and Mg^2+). […] Standard inhibition curves were also prepared in the Assay Plate.
Cell preparation for electrophysiology. CHO cells stably expressing the voltage-activated K^+ channel, Kv1.3 were plated in T-175 tissue culture flasks (at a density of 5×10^6) 2 days before experimentation and allowed to grow to around 95% confluence. Immediately prior to the experiment, the cells were washed with PBS and then detached with a 2 ml mixture (1:1 volume ratio) of trypsin (0.25%) and versene (1:5000) at 37° C. (for 3 minutes). […] The mean K^+ current amplitude was measured between 430 and 440 ms and the data were exported to a Microsoft Excel spreadsheet. The amplitude of the K^+ current in the presence of each concentration of the Test Solution or Standard was expressed as a percentage of the K^+ current in control conditions in the same well.
Standard inhibition curves were generated for each standard in various levels of rat serum and expressed as current percent of control (POC) versus log of nM concentration. […]
Beyond 48 hours, the level of drug falls outside the linear range of the Standard curve and is not calculated. […]

[3] = test system: thapsigargin-induced IL-2 and IFN-g production in human whole blood; test: Ex vivo human whole blood assay, thapsigargin-induced secretion of IL-2 and IFN-g; format: cell-based; conditions: two donors, 48 hours
[4] = test system: upregulation of CD40L and IL-2R on CD4+ T cells in human whole blood; test: Ex vivo human whole blood assay, thapsigargin-induced cell surface CD40L and IL-2R on T cells (FACS); format: cell-based; conditions: 24 hours
[5] = cited from earlier work
human Kv1.1 = target: T1, human Kv1.1 (Homo sapiens, UniProt Q09470); test: Whole cell patch clamp electrophysiology, HEK293 cell expression system, human Kv1.1; format: cell-based
T1 construct: expressed in transfected cells; host or cells: HEK293
T1 sequence (Q09470 whole entry): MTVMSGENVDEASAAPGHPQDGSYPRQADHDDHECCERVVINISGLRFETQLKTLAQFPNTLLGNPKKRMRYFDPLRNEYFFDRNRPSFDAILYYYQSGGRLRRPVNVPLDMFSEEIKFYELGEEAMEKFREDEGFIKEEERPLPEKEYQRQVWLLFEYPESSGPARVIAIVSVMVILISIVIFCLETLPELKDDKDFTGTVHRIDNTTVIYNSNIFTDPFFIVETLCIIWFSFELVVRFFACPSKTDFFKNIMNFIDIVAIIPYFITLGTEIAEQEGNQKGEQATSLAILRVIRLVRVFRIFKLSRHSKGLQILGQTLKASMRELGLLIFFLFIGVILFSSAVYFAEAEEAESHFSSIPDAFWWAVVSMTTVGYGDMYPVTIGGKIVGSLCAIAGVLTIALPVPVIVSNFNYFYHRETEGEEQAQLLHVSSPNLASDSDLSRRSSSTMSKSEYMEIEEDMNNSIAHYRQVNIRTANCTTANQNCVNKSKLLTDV

[6] = test system: AT-EAE model of multiple sclerosis; test: Adoptive transfer experimental autoimmune encephalomyelitis (AT-EAE) model of multiple sclerosis; format: in vivo, Lewis rats; conditions: for Survival to the end of the study: n=5 rats per group; for peak clinical severity score average: scale 0-6

Sequence of Kv1.3 (P22001 whole entry): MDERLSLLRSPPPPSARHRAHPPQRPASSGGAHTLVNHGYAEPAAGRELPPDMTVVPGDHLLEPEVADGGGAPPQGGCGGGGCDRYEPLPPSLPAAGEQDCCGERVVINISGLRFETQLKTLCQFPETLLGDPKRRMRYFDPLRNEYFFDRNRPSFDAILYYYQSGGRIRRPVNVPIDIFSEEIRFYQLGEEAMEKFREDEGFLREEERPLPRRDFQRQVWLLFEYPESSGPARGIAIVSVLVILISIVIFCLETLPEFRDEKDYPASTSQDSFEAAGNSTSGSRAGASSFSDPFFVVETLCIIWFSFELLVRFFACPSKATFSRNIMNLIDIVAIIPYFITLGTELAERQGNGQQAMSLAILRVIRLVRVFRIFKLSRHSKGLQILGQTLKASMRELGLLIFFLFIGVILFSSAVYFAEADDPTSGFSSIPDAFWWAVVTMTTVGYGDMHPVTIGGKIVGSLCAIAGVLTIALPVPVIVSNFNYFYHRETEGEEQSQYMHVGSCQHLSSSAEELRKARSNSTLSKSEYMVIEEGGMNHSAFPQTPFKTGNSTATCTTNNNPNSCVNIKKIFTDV

CC[C@H](C)[C@@H]1NC(=O)[C@@H](NC(=O)[C@H](CO)NC(=O)[C@@H](N)CCCNC(=N)N)CSSC[C@@H](C(=O)O)NC(=O)[C@H]([C@@H](C)O)NC(=O)CNC(=O)[C@@H]2CSSC[C@@H]3NC(=O)[C@H](CCC(N)=O)NC(=O)[C@H](Cc4ccccc4)NC(=O)[C@H](C)NC(=O)[C@H]([C@@H](C)O)NC(=O)[C@H](CSSC[C@H](NC(=O)[C@H](Cc4ccccc4)NC(=O)[C@H](CO)NC(=O)[C@H](CC(C)C)NC(=O)[C@H](CCCNC(=N)N)NC(=O)[C@H](Cc4ccc(O)cc4)NC(=O)[C@H](CCCCN)NC(=O)[C@H](CCSC)NC(=O)[C@H](CO)NC(=O)[C@H](Cc4cnc[nH]4)NC(=O)[C@H](CCCCN)NC3=O)C(=O)N[C@@H](CCCNC(=N)N)C(=O)N[C@@H](CCCCN)C(=O)N[C@@H]([C@@H](C)O)C(=O)N2)NC(=O)[C@H](CCCNC(=N)N)NC(=O)[C@H](CO)NC(=O)[C@H](CCCCN)NC(=O)[C@@H]2CCCN2C(=O)[C@H]([C@@H](C)CC)NC(=O)[C@H]([C@@H](C)O)NC(=O)[C@H](CC(=O)O)NC1=O [ShK[1-35], Stichodactyla helianthus neurotoxin, reference compound]
Blockade of human Kv1.3 current (in words) (Kv1.3; patch clamp electrophysiology): potently block Kv1.3 | Inhibition of IFNg production [1]: only partial inhibtion | Inhibition of IL-2 production [1]: only partial inhibtion | Time of significant suppression of Kv1.3 current (<70 POC) by serum [2]: ≤ 1 h | Thapsigargin-induced IFN-g production in human whole blood [3]: suppressed | Thapsigargin-induced IL-2 production in human whole blood [3]: suppressed | Thapsigargin-induced IL-2 production in human whole blood ([3]; listed as ShK): potently blocked IL-2 secretion | Thapsigargin-induced upregulation of CD40L on T cells in human whole blood [4]: suppressed | Thapsigargin-induced upregulation of the IL-2R on T cells in human whole blood [4]: suppressed | Thapsigargin-induced upregulation of the IL-2R on T cells in human whole blood ([4]; listed as ShK): suppressing activation of the IL-2R | half-life in vivo of ShK [5]: ~0.333 h | half-life of native ShK ([5]; in vivo): approximately 0.33 hour

Fc-L10-OSK1[K7S,E16K,K20D]: OSK1-peptibody with K7S, E16K and K20D substitutions; SEQ ID NO: 1047
selectivity ratio hKv1.1/hKv1.3 (Kv1.3): 12 | Potency and selectivity Kv1.3 versus Kv1.1 (in words) (human Kv1.1): significant decrease in potency as well as selectivity

Fc-L10-OSK1[K7S]: OSK1-peptibody with lysine to serine substitution at position 7; SEQ ID NO: 1043
selectivity ratio hKv1.1/hKv1.3 (Kv1.3): 269 | pIC50 (human Kv1.1; whole cell patch clamp, HEK293 cell expression system, human Kv1.1, read-out: hKv1.1:IC50): 7.00

PEG-ShK[1-35]: synthetic ShK N-terminally PEGylated with 20 kDa monomethoxy-PEG-aldehyde by reductive alkylation; about 24-kDa
pIC50 (Kv1.3; blockade of peak outward potassium current, HEK293 cells stably expressing human Kv1.3, read-out: peak IC50): 9.77 | terminal half-life (t1/2 b) ([2]; IV injection 1 mg/kg, estimated from curve): 6 to 12 h | Time of significant suppression of Kv1.3 current (<70 POC) by serum [2]: more than 24 hours | Average body weight lost ([6]; 1 ug/kg): 30 g | Onset of disease ([6]; 1 μg/kg SC daily days −1 to 3): 4 days | Average body weight lost ([6]; 10 μg/kg): 18 g | Onset of disease ([6]; 10 μg/kg SC daily days −1 to 3): 4.5 days | Survival to the end of the study ([6]; 10 μg/kg): all but one rat survived to the end of the study | peak clinical severity score average ([6]; 10 μg/kg): < 2 | Average body weight lost ([6]; 100 μg/kg): 11 g | Onset of disease ([6]; 100 μg/kg SC daily days −1 to 3): 4.5 days | Survival to the end of the study ([6]; 100 μg/kg): all but one rat survived to the end of the study | peak clinical severity score average ([6]; 100 μg/kg): < 2 | Disease severity and survival (in words) ([6]; SC 10 μg/kg daily from day −1 to day 3): significantly reduced disease severity and increased survival
